From ChEMBL document CHEMBL1201862, “PubChem BioAssay data set” (2004)
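How tested: cells in 96-well plates exposed to compound for 48 hours at five concentrations. GI50: concentration for 50% inhibition of growth.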 Active and inactive are the calls of the source. Rule as the data show it: active = GI50 up to about 1.1 µM and inactive = higher.

Legend:
Assay in all cases: NCI-60 cell line screen, 48 h
786-0 = tested on: 786-0
A498 = tested on: A498
A549 = tested on: A549
ACHN = tested on: ACHN
CAKI-1 = tested on: CAKI-1
CCRF-CEM = tested on: CCRF-CEM
COLO 205 = tested on: COLO 205
DU-145 = tested on: DU-145
EKVX = tested on: EKVX
HCC 2998 = tested on: HCC 2998
HCT-116 = tested on: HCT-116
HCT-15 = tested on: HCT-15
HL-60 = tested on: HL-60
HOP-62 = tested on: HOP-62
HOP-92 = tested on: HOP-92
HT-29 = tested on: HT-29
Hs-578T = tested on: Hs-578T
IGROV-1 = tested on: IGROV-1
K562 = tested on: K562
KM12 = tested on: KM12
LOX IMVI = tested on: LOX IMVI
M14 = tested on: M14
MCF7 = tested on: MCF7
MDA-MB-231 = tested on: MDA-MB-231
MDA-MB-435 = tested on: MDA-MB-435
MDA-N = tested on: MDA-N
MOLT-4 = tested on: MOLT-4
Malme-3M = tested on: Malme-3M
NCI-H226 = tested on: NCI-H226
NCI-H23 = tested on: NCI-H23
NCI-H460 = tested on: NCI-H460
NCI-H522 = tested on: NCI-H522
NCI/ADR-RES = tested on: NCI/ADR-RES
OVCAR-3 = tested on: OVCAR-3
OVCAR-4 = tested on: OVCAR-4
OVCAR-5 = tested on: OVCAR-5
OVCAR-8 = tested on: OVCAR-8
PC-3 = tested on: PC-3
RPMI-8226 = tested on: RPMI-8226
RXF 393 = tested on: RXF 393
SF-268 = tested on: SF-268
SF-295 = tested on: SF-295
SF-539 = tested on: SF-539
SK-MEL-28 = tested on: SK-MEL-28
SK-MEL-2 = tested on: SK-MEL-2
SK-MEL-5 = tested on: SK-MEL-5
SK-OV-3 = tested on: SK-OV-3
SN12C = tested on: SN12C
SNB-75 = tested on: SNB-75
SR = tested on: SR
SW-620 = tested on: SW-620
T47D = tested on: T47D
TK-10 = tested on: TK-10
U-251 = tested on: U-251
UACC-257 = tested on: UACC-257
UACC-62 = tested on: UACC-62
UO-31 = tested on: UO-31
SNB-19 = tested on: SNB-19

CC(NNC(=O)c1ccncc1)c1cccc(C(F)(F)F)c1 (stereo not given)
GI50 (786-0): > 100 µM (inactive)
GI50 (A498): > 100 µM (inactive)
GI50 (A549): > 100 µM (inactive)
GI50 (ACHN): > 100 µM (inactive)
GI50 (CAKI-1): > 100 µM (inactive)
GI50 (CCRF-CEM): > 100 µM (inactive)
GI50 (COLO 205): > 100 µM (inactive)
GI50 (DU-145): > 100 µM (inactive)
GI50 (EKVX): > 100 µM (inactive)
GI50 (HCC 2998): > 100 µM (inactive)
GI50 (HCT-116): > 100 µM (inactive)
GI50 (HCT-15): > 100 µM
GI50 (HL-60): > 100 µM (inactive)
GI50 (HOP-62): > 100 µM (inactive)
GI50 (HOP-92): > 100 µM (inactive)
GI50 (HT-29): > 100 µM (inactive)
GI50 (Hs-578T): > 100 µM (inactive)
GI50 (IGROV-1): > 100 µM (inactive)
GI50 (K562): > 100 µM (inactive)
GI50 (KM12): > 100 µM (inactive)
GI50 (LOX IMVI): > 100 µM (inactive)
GI50 (M14): > 100 µM (inactive)
GI50 (MCF7): > 100 µM (inactive)
GI50 (MDA-MB-231): > 100 µM (inactive)
GI50 (MDA-MB-435): > 100 µM (inactive)
GI50 (MDA-N): > 100 µM (inactive)
GI50 (MOLT-4): > 100 µM (inactive)
GI50 (Malme-3M): > 100 µM (inactive)
GI50 (NCI-H226): > 100 µM (inactive)
GI50 (NCI-H23): > 100 µM (inactive)
GI50 (NCI-H460): > 100 µM (inactive)
GI50 (NCI-H522): > 100 µM (inactive)
GI50 (NCI/ADR-RES): > 100 µM (inactive)
GI50 (OVCAR-3): 0.265 µM (active)
GI50 (OVCAR-4): > 100 µM (inactive)
GI50 (OVCAR-5): > 100 µM (inactive)
GI50 (OVCAR-8): > 100 µM (inactive)
GI50 (PC-3): > 100 µM (inactive)
GI50 (RPMI-8226): > 100 µM (inactive)
GI50 (RXF 393): > 100 µM (inactive)
GI50 (SF-268): > 100 µM (inactive)
GI50 (SF-295): > 100 µM (inactive)
GI50 (SF-539): > 100 µM (inactive)
GI50 (SK-MEL-28): > 100 µM (inactive)
GI50 (SK-MEL-2): > 100 µM (inactive)
GI50 (SK-MEL-5): > 100 µM (inactive)
GI50 (SK-OV-3): > 100 µM (inactive)
GI50 (SN12C): > 100 µM (inactive)
GI50 (SNB-75): > 100 µM (inactive)
GI50 (SR): > 100 µM (inactive)
GI50 (SW-620): > 100 µM (inactive)
GI50 (T47D): > 100 µM (inactive)
GI50 (TK-10): > 100 µM (inactive)
GI50 (U-251): > 100 µM (inactive)
GI50 (UACC-257): > 100 µM (inactive)
GI50 (UACC-62): > 100 µM (inactive)
GI50 (UO-31): > 100 µM (inactive)

CC(=O)N1CC(C)(C)c2c1cc(C)c(O)c2C
GI50 (786-0): > 100 µM (inactive)
GI50 (A498): > 100 µM (inactive)
GI50 (A549): > 100 µM (inactive)
GI50 (ACHN): > 100 µM (inactive)
GI50 (CCRF-CEM): > 100 µM (inactive)
GI50 (COLO 205): > 100 µM (inactive)
GI50 (DU-145): > 100 µM (inactive)
GI50 (EKVX): > 100 µM (inactive)
GI50 (HCC 2998): > 100 µM (inactive)
GI50 (HCT-116): > 100 µM (inactive)
GI50 (HCT-15): > 100 µM
GI50 (HL-60): 86.9 µM (inactive)
GI50 (HOP-62): > 100 µM (inactive)
GI50 (HT-29): > 100 µM (inactive)
GI50 (Hs-578T): > 100 µM (inactive)
GI50 (IGROV-1): > 100 µM (inactive)
GI50 (K562): > 100 µM (inactive)
GI50 (KM12): > 100 µM (inactive)
GI50 (LOX IMVI): > 100 µM (inactive)
GI50 (M14): > 100 µM (inactive)
GI50 (MCF7): > 100 µM (inactive)
GI50 (MDA-MB-231): > 100 µM (inactive)
GI50 (MDA-MB-435): > 100 µM (inactive)
GI50 (MDA-N): > 100 µM (inactive)
GI50 (MOLT-4): > 100 µM (inactive)
GI50 (NCI-H226): > 100 µM (inactive)
GI50 (NCI-H23): > 100 µM (inactive)
GI50 (NCI-H460): > 100 µM (inactive)
GI50 (NCI-H522): > 100 µM (inactive)
GI50 (NCI/ADR-RES): > 100 µM (inactive)
GI50 (OVCAR-3): > 100 µM (inactive)
GI50 (OVCAR-4): > 100 µM (inactive)
GI50 (OVCAR-5): > 100 µM (inactive)
GI50 (OVCAR-8): > 100 µM (inactive)
GI50 (PC-3): > 100 µM (inactive)
GI50 (RPMI-8226): > 100 µM (inactive)
GI50 (RXF 393): > 100 µM (inactive)
GI50 (SF-268): > 100 µM (inactive)
GI50 (SF-295): > 100 µM (inactive)
GI50 (SF-539): > 100 µM (inactive)
GI50 (SK-MEL-28): > 100 µM (inactive)
GI50 (SK-MEL-2): > 100 µM (inactive)
GI50 (SK-MEL-5): > 100 µM (inactive)
GI50 (SK-OV-3): > 100 µM (inactive)
GI50 (SN12C): > 100 µM (inactive)
GI50 (SNB-19): > 100 µM (inactive)
GI50 (SW-620): > 100 µM (inactive)
GI50 (T47D): > 100 µM (inactive)
GI50 (TK-10): > 100 µM (inactive)
GI50 (U-251): > 100 µM (inactive)
GI50 (UACC-257): > 100 µM (inactive)
GI50 (UACC-62): > 100 µM (inactive)
GI50 (UO-31): > 100 µM (inactive)
